Consider 16 compounds from patent US20100204203A1, “Chemical Compounds 637: Pyridopyrimidinediones as PDE4 Inhibitors” (priority 2007, published 2010).

The test deals with recombinant Human Phosphodiesterase B2 (PDE4B2) (Homo sapiens, UniProt Q07343). Description: Human Phosphodiesterase B2 Radiometric Assay (yttrium silicate SPA beads, [3H]cyclic AMP). The test is classed as biochemical. As to conditions: recombinant human PDE4B2, radiometric SPA assay, 8 nM [3H]cyclic AMP; read-out: PDE4B2 pIC50 (converted). The essentials: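 Compounds were preincubated 30 min at 30 °C with 0.1 mg/mL PDE4B2 in 50 mM HEPES pH 7.5, 8.3 mM MgCl2, 1.7 mM EGTA, 0.01% Brij 35. Then 8 nM [3H]cAMP was added for 20 min, stopped with yttrium silicate SPA beads plus 18 mM ZnSO4 capturing product 5′AMP; pIC50 by curve fitting.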
recombinant Human Phosphodiesterase B2 (PDE4B2), sequence (Q07343 1-564 isoform Q07343-2): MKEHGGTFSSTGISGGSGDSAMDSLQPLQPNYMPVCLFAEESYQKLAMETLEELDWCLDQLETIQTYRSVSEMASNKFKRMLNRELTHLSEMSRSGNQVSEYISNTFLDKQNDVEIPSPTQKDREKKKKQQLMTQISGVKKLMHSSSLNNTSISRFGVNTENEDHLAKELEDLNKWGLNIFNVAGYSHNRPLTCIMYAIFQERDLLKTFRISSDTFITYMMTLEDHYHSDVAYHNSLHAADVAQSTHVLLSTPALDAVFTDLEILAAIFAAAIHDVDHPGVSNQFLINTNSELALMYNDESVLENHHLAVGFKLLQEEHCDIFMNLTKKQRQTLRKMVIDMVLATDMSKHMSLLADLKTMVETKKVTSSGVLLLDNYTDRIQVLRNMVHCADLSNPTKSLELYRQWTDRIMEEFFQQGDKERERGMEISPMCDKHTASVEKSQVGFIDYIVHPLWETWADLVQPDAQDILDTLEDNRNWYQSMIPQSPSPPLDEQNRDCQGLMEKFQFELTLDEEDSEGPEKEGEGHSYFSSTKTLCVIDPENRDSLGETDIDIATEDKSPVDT

Counter-ions that a name gives are not always drawn.

As to `CNC1CCN(Cc2cc(O)ccc2-c2cccc(-n3c(=O)n([C@H]4CC[C@@H](NC(=O)c5cn6cc(F)ccc6n5)CC4)c(=O)c4cc(F)cnc43)c2)CC1` [Example 73, 6-fluoro-N-{cis-4-[6-fluoro-1-(4′-hydroxy-2′-{[4-(methylamino)piperidin-1-yl]methyl}biphenyl-3-yl)-2,4-dioxo-1,4-dihydropyrido[2,3-d]pyrimidin-3(2H)-yl]cyclohexyl}imidazo[1,2-a]pyridine-2-carboxamide trifluoroacetate salt], the IC50 is 0.0251 nM.

Take `O=c1c2cc(F)cnc2n(-c2cccc(-c3ccccc3)c2)c(=O)n1[C@H]1CC[C@@H](NCc2cn3cc(F)ccc3n2)CC1` [Example 74, 1-biphenyl-3-yl-6-fluoro-3-(cis-4-{[(6-fluoroimidazo[1,2-a]pyridin-2-yl)methyl]amino}cyclohexyl)pyrido[2,3-d]pyrimidine-2,4(1H,3H)-dione]: the IC50 is 0.794 nM.

Take `O=c1c2cc(F)cnc2n(-c2cccc(-c3ccc(CN4CCNCC4)cc3)c2)c(=O)n1[C@H]1CC[C@@H](NCc2cn3cc(F)ccc3n2)CC1` [Example 75, 6-fluoro-3-(cis-4-{[(6-fluoroimidazo[1,2-a]pyridin-2-yl)methyl]amino}cyclohexyl)-1-[4′-(piperazin-1-ylmethyl)biphenyl-3-yl]pyrido[2,3-d]pyrimidine-2,4(1H,3H)-dione]: the IC50 is 0.316 nM.

For `O=c1c2cc(F)cnc2n(-c2cccc(-c3ccc(CN4CCOCC4)cc3)c2)c(=O)n1[C@H]1CC[C@@H](NCc2cn3cc(F)ccc3n2)CC1` [Example 76, 6-fluoro-3-(cis-4-{[(6-fluoroimidazo[1,2-a]pyridin-2-yl)methyl]amino}cyclohexyl)-1-[4′-(morpholin-4-ylmethyl)biphenyl-3-yl]pyrido[2,3-d]pyrimidine-2,4(1H,3H)-dione ditrifluoroacetic acid], the IC50 is 0.316 nM.

With `CNCCOc1ccc(-c2cccc(-n3c(=O)n([C@H]4CC[C@@H](NC(=O)c5cn6cc(F)ccc6n5)CC4)c(=O)c4cc(F)cnc43)c2)cc1` [Example 77, 6-fluoro-N-{cis-4-[6-fluoro-1-{4′-[2-(methylamino)ethoxy]biphenyl-3-yl}-2,4-dioxo-1,4-dihydropyrido[2,3-d]pyrimidin-3(2H)-yl]cyclohexyl}imidazo[1,2-c]pyridine-2-carboxamide], the IC50 is 0.0251 nM.

With `CN(C)CCOc1ccc(-c2cccc(-n3c(=O)n([C@H]4CC[C@@H](NC(=O)c5cn6cc(F)ccc6n5)CC4)c(=O)c4cc(F)cnc43)c2)cc1` [Example 78, N-{cis-4-[1-{4′-[2-(dimethylamino)ethoxy]biphenyl-3-yl}-6-fluoro-2,4-dioxo-1,4-dihydropyrido[2,3-d]pyrimidin-3(2H)-yl]cyclohexyl}-6-fluoroimidazo[1,2-a]pyridine-2-carboxamide], the IC50 is 0.0398 nM.

In the case of `O=C(N[C@H]1CC[C@@H](n2c(=O)c3cc(F)cnc3n(-c3cccc(-c4ccc(OCCN5CCCC5)cc4)c3)c2=O)CC1)c1cn2cc(F)ccc2n1` [Example 79, 6-fluoro-N-{cis-4-[6-fluoro-2,4-dioxo-1-[4′-(2-pyrrolidin-1-ylethoxy)biphenyl-3-yl]-1,4-dihydropyrido[2,3-d]pyrimidin-3(2H)-yl]cyclohexyl}imidazo[1,2-a]pyridine-2-carboxamide], the IC50 is 0.02 nM.

Turning to `O=C(N[C@H]1CC[C@@H](n2c(=O)c3cc(F)cnc3n(-c3cccc(-c4ccc(F)cc4O)c3)c2=O)CC1)c1cn2cc(F)ccc2n1` [Example 80, 6-fluoro-N-{cis-4-[6-fluoro-1-(4′-fluoro-2′-hydroxybiphenyl-3-yl)-2,4-dioxo-1,4-dihydropyrido[2,3-d]pyrimidin-3(2H)-yl]cyclohexyl}imidazo[1,2-a]pyridine-2-carboxamide], the IC50 is 0.0794 nM.

On to `O=C(N[C@H]1CC[C@@H](n2c(=O)c3cc(F)cnc3n(-c3cccc(-c4ccc(OCCCN5CCOCC5)cc4)c3)c2=O)CC1)c1cn2cc(F)ccc2n1` [Example 81, 6-fluoro-N-{cis-4-[6-fluoro-1-[4′-(3-morpholin-4-ylpropoxy)biphenyl-3-yl]-2,4-dioxo-1,4-dihydropyrido[2,3-d]pyrimidin-3(2H)-yl]cyclohexyl}imidazo[1,2-a]pyridine-2-carboxamide], for which the IC50 is 0.00631 nM.

`CN(C)CCOc1cc(F)ccc1-c1cccc(-n2c(=O)n([C@H]3CC[C@@H](NC(=O)c4cn5cc(F)ccc5n4)CC3)c(=O)c3cc(F)cnc32)c1` [Example 82, N-{cis-4-[1-{2′-[2-(dimethylamino)ethoxy]-4′-fluorobiphenyl-3-yl}-6-fluoro-2,4-dioxo-1,4-dihydropyrido[2,3-d]pyrimidin-3 (2H)-yl]cyclohexyl}-6-fluoroimidazo[1,2-a]pyridine-2-carboxamide]: the IC50 was 0.2 nM.

On to `CN(C)CCOc1cc(F)ccc1-c1cccc(-n2c(=O)n([C@H]3CC[C@@H](N(CCN(C)C)C(=O)c4cn5cc(F)ccc5n4)CC3)c(=O)c3cc(F)cnc32)c1` [Example 83, N-{cis-4-[1-{2′-[2-(dimethylamino)ethoxy]-4′-fluorobiphenyl-3-yl}-6-fluoro-2,4-dioxo-1,4-dihydropyrido[2,3-d]pyrimidin-3(2H)-yl]cyclohexyl}-N-[2-(dimethylamino)ethyl]-6-fluoroimidazo[1,2-a]pyridine-2-carboxamide], for which the IC50 is 6.31 nM.

`CN(C)CCCOc1cc(F)ccc1-c1cccc(-n2c(=O)n([C@H]3CC[C@@H](NC(=O)c4cn5cc(F)ccc5n4)CC3)c(=O)c3cc(F)cnc32)c1` [Example 84, N-{cis-4-[1-{2′-[3-(dimethylamino)propoxy]-4′-fluorobiphenyl-3-yl}-6-fluoro-2,4-dioxo-1,4-dihydropyrido[2,3-d]pyrimidin-3(2H)-yl]cyclohexyl}-6-fluoroimidazo[1,2-a]pyridine-2-carboxamide]: the IC50 is 0.2 nM.

Regarding `O=C(N[C@H]1CC[C@@H](n2c(=O)c3cc(F)cnc3n(-c3cccc(-c4ccc(F)cc4OCCN4CCNCC4)c3)c2=O)CC1)c1cn2cc(F)ccc2n1` [Example 85, 6-fluoro-N-{cis-4-[6-fluoro-1-[4′-fluoro-2′-(2-piperazin-1-ylethoxy)biphenyl-3-yl]-2,4-dioxo-1,4-dihydropyrido[2,3-d]pyrimidin-3(2H)-yl]cyclohexyl}imidazo[1,2-a]pyridine-2-carboxamide], the IC50 was 0.316 nM.

With `O=c1c2cc(F)cnc2n(-c2cccc(-c3ccccc3)c2)c(=O)n1[C@H]1CC[C@@H](NCCO)CC1` [Example 86, 1-biphenyl-3-yl-6-fluoro-3-{cis-4-[(2-hydroxyethyl)amino]cyclohexyl}pyrido[2,3-d]pyrimidine-2,4(1H,3H)-dione], the IC50 is 31.6 nM.

For the compound `C[N+](C)(C)Cc1ccc(-c2cccc(-n3c(=O)n([C@H]4CC[C@@H](NC(=O)c5cn6cc(F)ccc6n5)CC4)c(=O)c4cc(F)cnc43)c2)cc1` [Example 87, {3-[6-fluoro-3-(cis-4-{[(6-fluoroimidazo[1,2-a]pyridin-2-yl)carbonyl]amino}cyclohexyl)-2,4-dioxo-3,4-dihydropyrido[2,3-a]pyrimidin-1(2H)-yl]biphenyl-4-yl]-N,N,N-trimethylmethanaminium iodide], the IC50 is 0.316 nM.

As to `CN(C)Cc1ccccc1-c1cccc(-n2c(=O)n([C@H]3CC[C@@H](NC(=O)[C@H]4CCCN4C)CC3)c(=O)c3cc(F)cnc32)c1` [Example 88, N-{cis-4-[1-{2′-[(dimethylamino)methyl]biphenyl-3-yl}-6-fluoro-2,4-dioxo-1,4-dihydropyrido[2,3-d]pyrimidin-3(2H)-yl]cyclohexyl}-1-methyl-D-prolinamide], the IC50 was 50.1 nM.
